Experimental data from ChEMBL document CHEMBL5046253, “Synthesis and bioevaluation of diaryl urea derivatives as potential antitumor agents for the treatment of human colorectal cancer” (Eur J Med Chem, 2022).

How the values were obtained:
[1] = target: Phosphatidylinositol 4,5-bisphosphate 3-kinase catalytic subunit alpha isoform (Homo sapiens, UniProt P42336); test: Inhibition of PI3Kalpha (unknown origin) using PIP2 as substrate in presence of ATP incubated for 60 mins by ADP-glo based luminescence assay
Chain of Phosphatidylinositol 4,5-bisphosphate 3-kinase catalytic subunit alpha isoform (P42336 whole entry, canonical isoform): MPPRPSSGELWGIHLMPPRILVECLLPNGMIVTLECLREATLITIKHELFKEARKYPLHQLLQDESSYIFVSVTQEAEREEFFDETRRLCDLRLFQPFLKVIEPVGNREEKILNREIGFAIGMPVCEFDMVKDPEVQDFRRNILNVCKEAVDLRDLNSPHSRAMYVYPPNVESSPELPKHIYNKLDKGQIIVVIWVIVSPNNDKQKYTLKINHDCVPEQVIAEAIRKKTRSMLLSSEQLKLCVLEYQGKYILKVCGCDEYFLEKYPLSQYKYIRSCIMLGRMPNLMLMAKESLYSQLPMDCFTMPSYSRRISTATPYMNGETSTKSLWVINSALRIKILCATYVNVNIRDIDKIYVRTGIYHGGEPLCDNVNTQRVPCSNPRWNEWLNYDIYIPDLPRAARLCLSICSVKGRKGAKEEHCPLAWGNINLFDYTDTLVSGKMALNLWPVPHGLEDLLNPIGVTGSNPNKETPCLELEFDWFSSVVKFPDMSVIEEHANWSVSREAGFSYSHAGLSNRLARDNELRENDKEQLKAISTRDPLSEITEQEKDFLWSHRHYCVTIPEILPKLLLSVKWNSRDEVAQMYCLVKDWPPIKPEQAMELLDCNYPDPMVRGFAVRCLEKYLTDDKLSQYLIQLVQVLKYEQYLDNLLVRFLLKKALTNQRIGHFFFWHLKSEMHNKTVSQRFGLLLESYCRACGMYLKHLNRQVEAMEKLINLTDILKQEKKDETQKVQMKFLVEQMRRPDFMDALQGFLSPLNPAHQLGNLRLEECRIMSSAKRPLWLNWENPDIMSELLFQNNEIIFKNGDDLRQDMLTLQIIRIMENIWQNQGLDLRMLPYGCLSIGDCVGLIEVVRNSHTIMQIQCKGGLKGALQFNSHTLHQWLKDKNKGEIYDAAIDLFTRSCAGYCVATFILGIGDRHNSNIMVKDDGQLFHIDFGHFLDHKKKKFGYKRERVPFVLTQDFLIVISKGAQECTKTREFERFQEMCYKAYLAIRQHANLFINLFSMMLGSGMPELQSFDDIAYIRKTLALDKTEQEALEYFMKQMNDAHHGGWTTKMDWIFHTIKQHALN

CNE-2 = test: Antiproliferative activity against human CNE-2 cells assessed as reduction in cell viability incubated for 48 hrs by MTT assay; type: functional, cell-based; conditions: CNE-2, 48 h
HCT-116 = test: Antiproliferative activity against human HCT-116 cells assessed as reduction in cell viability incubated for 48 hrs by MTT assay; type: functional, cell-based; conditions: HCT-116, 48 h
MCF7 = test: Antiproliferative activity against human MCF7 cells assessed as reduction in cell viability incubated for 48 hrs by MTT assay; type: functional, cell-based; conditions: MCF7, 48 h
MDA-MB-231 = test: Antiproliferative activity against human MDA-MB-231 cells assessed as reduction in cell viability incubated for 48 hrs by MTT assay; type: functional, cell-based; conditions: MDA-MB-231, 48 h
HeLa = test: Antiproliferative activity against human HeLa cells assessed as reduction in cell viability incubated for 48 hrs by MTT assay; type: functional, cell-based
HepG2 = test: Antiproliferative activity against human HepG2 cells assessed as reduction in cell viability incubated for 48 hrs by MTT assay; type: functional, cell-based; conditions: HepG2, 48 h
[2] = target: Serine/threonine-protein kinase mTOR (Homo sapiens, UniProt P42345); test: Inhibition of mTOR (unknown origin) using U-Light-4E-BP1 peptide as a substrate in presence of ATP incubated for 45 mins by Lance ultra assay

| IC50 [1] [nM] | IC50 (HCT-116) [nM] | IC50 (MCF7) [nM] | IC50 (MDA-MB-231) [nM] | IC50 (HeLa) [nM] | IC50 (HepG2) [nM] | IC50 [2] [nM] | Compound | IC50 (CNE-2) [nM] |
| --- | --- | --- | --- | --- | --- | --- | --- | --- |
| > 1000 | – | – | – | – | – | – | CN(C)C1CCN(C(=O)c2cnc(Nc3ccc(-c4nc(N5CCOCC5)nc(N5CCOCC5)n4)cc3)nc2)CC1 | – |
| 19 | 2700 | 9030 | 10400 | 9710 | 10400 | 4.2 | COC(=O)[C@@H]1CCCN1C(=O)c1ccc(NC(=O)Nc2ccc(-c3nc(N4CCOCC4)nc(N4CCOCC4)n3)cc2)cc1 | 3990 |
| 9.1 | 2480 | – | 19200 | 28500 | 18700 | 3.1 | CN(C)[C@H]1C[C@@H](C(N)=O)N(C(=O)c2ccc(NC(=O)Nc3ccc(-c4nc(N5CCOCC5)nc(N5CCOCC5)n4)cc3)cc2)C1 | 6670 |
| 0.6 | 200 | 4850 | 6780 | 8600 | – | 1.4 | NC(=O)C1CCCN1C(=O)c1ccc(NC(=O)Nc2ccc(-c3nc(N4CCOCC4)nc(N4CCOCC4)n3)cc2)cc1 (stereo not drawn) | 520 |
| 10.2 | 1300 | 2260 | 1920 | 7940 | 200 | 4.8 | CN(C)C1CCN(C(=O)c2ccc(NC(=O)Nc3ccc(-c4nc(N5CCOCC5)nc(N5C[C@@H]6OCCO[C@H]6C5)n4)cc3)cc2)CC1 | 290 |
| > 1000 | – | – | – | – | – | 10.3 | NC(=O)[C@@H]1CCCN1C(=O)Nc1ccc(-c2nccc(N3CCOCC3)n2)cc1 | – |
| 31.8 | 1610 | 9280 | 7570 | 4740 | – | 6.2 | CN(C)C1CCN(C(=O)c2ccc(NC(=O)Nc3ccc(-c4cc(N5CCOCC5)nc(N5CCOCC5)n4)cc3)cc2)CC1 | 1460 |
| > 1000 | – | – | – | – | – | – | NC(=O)[C@@H]1CCCN1C(=O)c1ccc(NC(=O)Nc2ccc(-c3cc(N4CCOCC4)ncn3)cc2)cc1 | – |
| 4.3 | 380 | – | 1740 | 210 | 540 | 1.2 | C[C@H]1COCCN1c1nc(-c2ccc(NC(=O)Nc3ccc(C(=O)N4CCC(C(N)=O)CC4)cc3)cc2)nc(N2CCOCC2)n1 | 670 |
| 11 | – | 7150 | 29100 | 11700 | – | 3.7 | O=C(Nc1ccc(C(=O)N2CCCC2C(=O)O)cc1)Nc1ccc(-c2nc(N3CCOCC3)nc(N3CCOCC3)n2)cc1 (stereo not drawn) | 2560 |
| 1.9 | 1960 | 10500 | 9890 | 15600 | – | 2 | NC(=O)[C@@H]1C[C@@H]2C[C@@H]2N1C(=O)c1ccc(NC(=O)Nc2ccc(-c3nc(N4CCOCC4)nc(N4CCOCC4)n3)cc2)cc1 | 9160 |
| 28.7 | – | – | – | – | – | 9.2 | C[C@H]1COCCN1c1ccnc(-c2ccc(NC(=O)Nc3ccc(C(=O)N4CCC[C@H]4C(N)=O)cc3)cc2)n1 | – |
| 680 | – | – | – | – | – | – | NC(=O)[C@@H]1CCCN1C(=O)c1cnc(Nc2ccc(-c3nc(N4CCOCC4)nc(N4CCOCC4)n3)cc2)nc1 | – |
| 1.6 | 3780 | – | 5640 | 10300 | 16600 | 3 | NC(=O)C1CCCCN1C(=O)c1ccc(NC(=O)Nc2ccc(-c3nc(N4CCOCC4)nc(N4CCOCC4)n3)cc2)cc1 (stereo not drawn) | 1740 |
| 4.3 | 780 | – | 620 | 560 | – | 5.7 | NC(=O)[C@@H]1CCCN1C(=O)c1ccc(NC(=O)Nc2ccc(-c3nc(N4CCOCC4)nc(N4C[C@@H]5OCCO[C@H]5C4)n3)cc2)cc1 | 950 |
| 5.7 | 6130 | – | 16400 | 6980 | – | 7.3 | NC(=O)[C@H]1CCCN1C(=O)c1ccc(NC(=O)Nc2ccc(-c3cc(N4CCOCC4)nc(N4CCOCC4)n3)cc2)cc1 | 3830 |
